Patent US7759345B2, “Antitumoral derivatives of ET-743” (priority 2001, dated 2010)

Key:
K-562 = experiment: Inhibition of cells growth by colorimetric assay (SRB), K-562; assay type: cell-based; conditions: for GI50 / LC50 (50% cell killing): Homo sapiens, K562, 48 h; for GI50 / K-562 TGI: SRB assay, 48 hours exposure; for GI50: read-out: K-562 GI50; for LC50 (50% cell killing): read-out: K-562 LC50, SRB assay, 48 hours exposure
Summary of the method: (§1)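 Human cancer cells (5×10^3/well) attached 18 h in RPMI 1640 10% FBS, then exposed 48 h at 37°C to compounds from 10 to 10^−8 μg/ml in DMSO/EtOH/PBS. TCA-fixed, SRB-stained, OD read at 490 nm; GI, TGI and LC derived from triplicate wells.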

A-549 = experiment: Inhibition of cells growth by colorimetric assay (SRB), A-549; assay type: cell-based; conditions: for GI50 / LC50 (concentration for 50% cell killing): Homo sapiens, A549, 48 h; for GI50 / A-549 TGI: SRB assay, 48 hours exposure; for GI50: read-out: A-549 GI50; for LC50 (concentration for 50% cell killing): read-out: A-549 LC50, SRB assay, 48 hours exposure
Summary of the method: as §1

SK-MEL-28 = experiment: Inhibition of cells growth by colorimetric assay (SRB), SK-MEL-28; assay type: cell-based; conditions: for GI50 / CC50: Homo sapiens, SK-MEL-28, 48 h; for GI50 / MEL-28 TGI: SRB assay, 48 hours exposure; for GI50: read-out: MEL-28 GI50; for CC50: read-out: MEL-28 LC50, SRB assay, 48 hours exposure
Summary of the method: as §1

HT-29 = experiment: Inhibition of cells growth by colorimetric assay (SRB), HT-29; assay type: cell-based; conditions: for GI50 / LC50 (concentration for 50% cell killing): Homo sapiens, HT-29, 48 h; for GI50 / HT-29 TGI: SRB assay, 48 hours exposure; for GI50: read-out: HT-29 GI50; for LC50 (concentration for 50% cell killing): read-out: HT-29 LC50, SRB assay, 48 hours exposure
Summary of the method: as §1

LoVo = experiment: Inhibition of cells growth by colorimetric assay (SRB), LoVo; assay type: cell-based; conditions: for GI50 / LC50 (concentration for 50% cell killing): Homo sapiens, LoVo, 48 h; for GI50 / LOVO TGI: SRB assay, 48 hours exposure; for GI50: read-out: LOVO GI50; for LC50 (concentration for 50% cell killing): read-out: LOVO LC50, SRB assay, 48 hours exposure
Summary of the method: as §1

LoVo-Dox = experiment: Inhibition of cells growth by colorimetric assay (SRB), LoVo-Dox; assay type: cell-based; conditions: for GI50 / CC50: Homo sapiens, 48 h; for GI50 / LOVO-DOX TGI: SRB assay, 48 hours exposure; for GI50: read-out: LOVO-DOX GI50; for CC50: read-out: LOVO-DOX LC50, SRB assay, 48 hours exposure
Summary of the method: as §1

DU-145 = experiment: Inhibition of cells growth by colorimetric assay (SRB), DU-145; assay type: cell-based; conditions: for GI50 / CC50: Homo sapiens, DU-145, 48 h; for GI50 / DU-145 TGI: SRB assay, 48 hours exposure; for GI50: read-out: DU-145 GI50; for CC50: read-out: DU-145 LC50, SRB assay, 48 hours exposure
Summary of the method: as §1

LNCaP = experiment: Inhibition of cells growth by colorimetric assay (SRB), LNCaP; assay type: cell-based; conditions: for GI50 / CC50: Homo sapiens, LNCaP, 48 h; for GI50: read-out: LNCAP GI50, SRB assay, 48 hours exposure; for CC50: read-out: LNCAP LC50, SRB assay, 48 hours exposure; for LNCAP TGI: SRB assay, 48 hours exposure
Summary of the method: as §1

SK-BR-3 = experiment: Inhibition of cells growth by colorimetric assay (SRB), SK-BR-3; assay type: cell-based; conditions: for GI50 / CC50: Homo sapiens, SK-BR-3, 48 h; for GI50 / SK-BR3 TGI: SRB assay, 48 hours exposure; for GI50: read-out: SK-BR3 GI50; for CC50: read-out: SK-BR3 LC50, SRB assay, 48 hours exposure
Summary of the method: as §1

IGROV-1 = experiment: Inhibition of cells growth by colorimetric assay (SRB), IGROV-1; assay type: cell-based; conditions: for GI50 / CC50: Homo sapiens, IGROV-1, 48 h; for GI50 / IGROV TGI: SRB assay, 48 hours exposure; for GI50: read-out: IGROV GI50; for CC50: read-out: IGROV LC50, SRB assay, 48 hours exposure
Summary of the method: as §1

IGROV-ET = experiment: Inhibition of cells growth by colorimetric assay (SRB), IGROV-ET; assay type: cell-based; conditions: for GI50 / CC50: Homo sapiens, 48 h; for GI50 / IGROV-ET TGI: SRB assay, 48 hours exposure; for GI50: read-out: IGROV-ET GI50; for CC50: read-out: IGROV-ET LC50, SRB assay, 48 hours exposure
Summary of the method: as §1

SK-OV-3 = experiment: Inhibition of cells growth by colorimetric assay (SRB), SK-OV-3; assay type: cell-based; conditions: for GI50 / LC50: Homo sapiens, SK-OV-3, 48 h; for GI50 / SK-OV3 TGI: SRB assay, 48 hours exposure; for GI50: read-out: SK-OV3 GI50; for LC50: read-out: SK-OV3 LC50, SRB assay, 48 hours exposure
Summary of the method: as §1

PANC-1 = experiment: Inhibition of cells growth by colorimetric assay (SRB), PANC-1; assay type: cell-based; conditions: for GI50 / LC50 (concentration for 50% net cell kill): Homo sapiens, PANC-1, 48 h; for GI50 / PANC-1 TGI: SRB assay, 48 hours exposure; for GI50: read-out: PANC-1 GI50; for LC50 (concentration for 50% net cell kill): read-out: PANC-1 LC50, SRB assay, 48 hours exposure
Summary of the method: as §1

HMEC1 = experiment: Inhibition of cells growth by colorimetric assay (SRB), HMEC1; assay type: cell-based; conditions: for GI50 / LC50: Homo sapiens, HMEC-1, 48 h; for GI50 / HMEC-1 TGI: SRB assay, 48 hours exposure; for GI50: read-out: HMEC-1 GI50; for LC50: read-out: HMEC-1 LC50, SRB assay, 48 hours exposure
Summary of the method: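 48 h SRB cytotoxicity assay; compound range 10–10^−8 μg/ml; seeding 5×10^3 cells/well, 18 h pre-attachment; OD 490 nm; GI, TGI, LC from triplicate means ± SD.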

Text for Heart: (§2) Toxicity was asssessed by the methods reported in Toxicology in Vitro, 15 (2001) 571-577, J. Luber Narod et al.: “Evaluation of the use of in vitro methodolodies as tools for screening new compounds for potential in vivo toxicity”.
Text for Kidney: as §2
Text for Liver: as §2
Text for Myelo: as §2
Text for Skeletal: as §2

With COc1cc2c(cc1O)CCN[C@]21CS[C@@H]2c3c(OC(=O)CCCCC4SCC5NC(=O)NC54)c(C)c4c(c3[C@H](COC1=O)N1C2[C@H]2c3c(cc(C)c(OC)c3O)C[C@@H]([C@@H]1O)N2C)OCO4 (stereo partly shown) [Compound 171] the GI50 (K-562) was 0.243 nM, the LC50 (50% cell killing) (K-562) was 0.982 nM and the “K-562 TGI” value (K-562) was 4.88E-10. The GI50 (A-549) was 22.8 nM, the LC50 (concentration for 50% cell killing) (A-549) was 96 nM and the “A-549 TGI” value (A-549) was 4.68E-08. For the same compound, the GI50 (SK-MEL-28) was 5.65 nM, the CC50 (SK-MEL-28) was 102 nM and the “MEL-28 TGI” value (SK-MEL-28) was 2.33E-08. The GI50 (HT-29) was 3.91 nM, the LC50 (concentration for 50% cell killing) (HT-29) was 10600 nM and the “HT-29 TGI” value (HT-29) was 3.24E-08. The GI50 (LoVo) was 23.7 nM, the LC50 (concentration for 50% cell killing) (LoVo) was 10600 nM and the “LOVO TGI” value (LoVo) was 7.66E-08. The GI50 (LoVo-Dox) was 938 nM, the CC50 (LoVo-Dox) was 10600 nM and the “LOVO-DOX TGI” value (LoVo-Dox) was 1.23E-06. For the same compound, the GI50 (DU-145) was 5.05 nM, the CC50 (DU-145) was 10600 nM and the “DU-145 TGI” value (DU-145) was 2.96E-08. For the same compound, the GI50 (LNCaP) was 1.66 nM, the CC50 (LNCaP) was 5.94 nM and the “LNCAP TGI” value (LNCaP) was 3.14E-09. For the same compound, the GI50 (SK-BR-3) was 2.47 nM, the CC50 (SK-BR-3) was 37.5 nM and the “SK-BR3 TGI” value (SK-BR-3) was 6.54E-09. For the same compound, the GI50 (IGROV-1) was 1.93 nM, the CC50 (IGROV-1) was 8.8 nM and the “IGROV TGI” value (IGROV-1) was 4.12E-09. For the same compound, the GI50 (IGROV-ET) was 225 nM, the CC50 (IGROV-ET) was 10600 nM and the “IGROV-ET TGI” value (IGROV-ET) was 7.08E-07. For the same compound, the GI50 (SK-OV-3) was 6.89 nM, the LC50 (SK-OV-3) was 10600 nM and the “SK-OV3 TGI” value (SK-OV-3) was 9.73E-08. The GI50 (PANC-1) was 7.3 nM, the LC50 (concentration for 50% net cell kill) (PANC-1) was 1060 nM and the “PANC-1 TGI” value (PANC-1) was 4.63E-08. The GI50 (HMEC1) was 2.94 nM, the LC50 (HMEC1) was 10600 nM and the “HMEC-1 TGI” value (HMEC1) was 6.90E-09. For the same compound, the “Toxicity Data Liver” value (Liver) was 8.37E-08, the “Toxicity Data Heart” value (Heart) was 3.13E-08 and the “Toxicity Data Myelo” value (Myelo) was 1.37E-07. For the same compound, the “Toxicity Data Skeletal” value (Skeletal) was 3.58E-08 and the “Toxicity Data Kidney” value (Kidney) was 2.70E-08.
With COc1cc2c(cc1O)CCN[C@]21CS[C@@H]2c3c(OC(=O)CCCCC4SCC5NC(=O)NC54)c(C)c4c(c3[C@H](COC1=O)N1C2[C@H]2c3c(cc(C)c(OC)c3OC(=O)CCCCC3SCC5NC(=O)NC53)C[C@@H]([C@@H]1O)N2C)OCO4 (stereo partly shown) [Compound 172] the GI50 (K-562) was 6.03 nM, the LC50 (50% cell killing) (K-562) was 35.3 nM and the “K-562 TGI” value (K-562) was 9.98E-09. For the same compound, the GI50 (A-549) was 241 nM, the LC50 (concentration for 50% cell killing) (A-549) was 853 nM and the “A-549 TGI” value (A-549) was 4.59E-07. The GI50 (SK-MEL-28) was 1.31 nM, the CC50 (SK-MEL-28) was 7.97 nM and the “MEL-28 TGI” value (SK-MEL-28) was 3.22E-09. For the same compound, the GI50 (HT-29) was 38.8 nM, the LC50 (concentration for 50% cell killing) (HT-29) was 8530 nM and the “HT-29 TGI” value (HT-29) was 1.43E-07. The GI50 (LoVo) was 226 nM, the LC50 (concentration for 50% cell killing) (LoVo) was 853 nM and the “LOVO TGI” value (LoVo) was 4.61E-07. The GI50 (LoVo-Dox) was 2880 nM, the CC50 (LoVo-Dox) was 8530 nM and the “LOVO-DOX TGI” value (LoVo-Dox) was 7.23E-06. The GI50 (DU-145) was 37.9 nM, the CC50 (DU-145) was 8530 nM and the “DU-145 TGI” value (DU-145) was 8.31E-08. The GI50 (LNCaP) was 27.7 nM, the CC50 (LNCaP) was 66.8 nM and the “LNCAP TGI” value (LNCaP) was 4.31E-08. The GI50 (SK-BR-3) was 50.2 nM, the CC50 (SK-BR-3) was 785 nM and the “SK-BR3 TGI” value (SK-BR-3) was 2.00E-07. For the same compound, the GI50 (IGROV-1) was 14.2 nM, the CC50 (IGROV-1) was 63.6 nM and the “IGROV TGI” value (IGROV-1) was 3.01E-08. The GI50 (IGROV-ET) was 165 nM, the CC50 (IGROV-ET) was 853 nM and the “IGROV-ET TGI” value (IGROV-ET) was 4.18E-07. For the same compound, the GI50 (SK-OV-3) was 219 nM, the LC50 (SK-OV-3) was 853 nM and the “SK-OV3 TGI” value (SK-OV-3) was 5.09E-07. The GI50 (PANC-1) was 326 nM, the LC50 (concentration for 50% net cell kill) (PANC-1) was 8530 nM and the “PANC-1 TGI” value (PANC-1) was 8.34E-07. The GI50 (HMEC1) was 432 nM, the LC50 (HMEC1) was 8530 nM and the “HMEC-1 TGI” value (HMEC1) was 8.53E-06. The “Toxicity Data Liver” value (Liver) was 2.47E-07, the “Toxicity Data Heart” value (Heart) was 7.52E-07 and the “Toxicity Data Myelo” value (Myelo) was 3.81E-07. The “Toxicity Data Skeletal” value (Skeletal) was 8.53E-07 and the “Toxicity Data Kidney” value (Kidney) was 7.93E-07.
